# Measured values taken from patent US20250313548A1 (Actio Biosciences, Inc., priority 2023, published 2025).
# Molecular target: human, KCNT1 (Homo sapiens (Human), UniProt Q5JUK3)
# Experiment: FLIPR Tl/K Flux Assay
# Type: cell-based
# Conditions: HEK293 cells stably expressing human KCNT1; Tl+ flux stimulated with EC80 of agonist Loxapine
# Summary of the method: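 HEK293 cells stably expressing human KCNT1 were loaded with FLIPR potassium dye in HEPES/HBSS pH 7.4 with 5 mM probenecid, 1 h at 25 °C, then given test compound for 30 min at 25 °C. Tl+ flux was triggered with chloride-free buffer containing Tl+ and EC80 loxapine and read 160 s. IC50 came from Hill fits of % inhibition.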
# human, KCNT1, sequence (Q5JUK3 whole entry): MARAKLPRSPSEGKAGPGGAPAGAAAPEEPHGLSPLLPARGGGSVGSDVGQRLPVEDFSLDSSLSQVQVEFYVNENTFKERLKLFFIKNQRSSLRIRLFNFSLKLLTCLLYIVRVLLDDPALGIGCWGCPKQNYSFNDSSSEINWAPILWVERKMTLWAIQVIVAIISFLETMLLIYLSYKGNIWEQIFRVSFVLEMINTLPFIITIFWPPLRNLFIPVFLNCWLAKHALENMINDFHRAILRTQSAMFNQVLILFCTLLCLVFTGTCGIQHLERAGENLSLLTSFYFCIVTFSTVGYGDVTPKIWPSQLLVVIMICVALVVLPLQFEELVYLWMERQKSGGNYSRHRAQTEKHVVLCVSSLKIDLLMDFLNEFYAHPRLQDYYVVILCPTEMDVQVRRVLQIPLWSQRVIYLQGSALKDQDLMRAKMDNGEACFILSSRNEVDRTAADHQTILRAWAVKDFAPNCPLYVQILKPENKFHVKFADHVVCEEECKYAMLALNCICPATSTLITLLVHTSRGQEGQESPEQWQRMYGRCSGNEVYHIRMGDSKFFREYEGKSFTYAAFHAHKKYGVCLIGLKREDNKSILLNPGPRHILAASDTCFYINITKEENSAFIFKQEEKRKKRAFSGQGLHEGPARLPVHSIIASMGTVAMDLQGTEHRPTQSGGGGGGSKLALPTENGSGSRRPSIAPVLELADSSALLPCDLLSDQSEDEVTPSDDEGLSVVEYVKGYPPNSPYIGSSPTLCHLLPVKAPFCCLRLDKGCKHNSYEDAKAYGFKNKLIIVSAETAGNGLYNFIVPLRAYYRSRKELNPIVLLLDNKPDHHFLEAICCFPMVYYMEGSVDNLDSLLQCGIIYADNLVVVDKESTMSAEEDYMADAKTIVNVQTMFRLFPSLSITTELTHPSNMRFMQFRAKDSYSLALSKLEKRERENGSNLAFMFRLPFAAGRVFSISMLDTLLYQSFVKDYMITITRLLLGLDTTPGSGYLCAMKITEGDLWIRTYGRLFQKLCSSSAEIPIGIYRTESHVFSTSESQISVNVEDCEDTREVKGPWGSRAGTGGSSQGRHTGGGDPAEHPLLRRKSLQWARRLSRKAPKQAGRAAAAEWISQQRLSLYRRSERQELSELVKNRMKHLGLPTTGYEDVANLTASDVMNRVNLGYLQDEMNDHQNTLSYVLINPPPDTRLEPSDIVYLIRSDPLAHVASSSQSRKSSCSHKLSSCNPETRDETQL
row,SMILES,IC50 [nM]
1,N#Cc1cccc(C(=O)NC2CCCCC3NC(c4ccnc(C(F)(F)F)c4)=NC23)c1 (centres unmarked) [Compound I-463],> 1000
2,COc1cc(C2=NC3C(NC(=O)c4cccc(C#N)c4)CCCCC3N2)ccn1 (centres unmarked) [Compound I-464],> 1000
3,COc1cc(-c2nc3c(o2)CCC[C@H]3NC(=O)c2cncc(C(F)(F)F)n2)ccn1 [Compound I-471b],500 to 1000
4,Cc1cnc(C(F)(F)F)cc1-c1cc2n(n1)CC[C@H]2NC(=O)c1cc(C(F)(F)F)nn1C [Compound I-472b],> 1000
5,COc1cc(-c2nc3n(n2)CCC[C@H]3NC(=O)c2cc(C(F)(F)F)nn2C)ccn1 [Compound I-474b],> 1000
6,Cn1nc(C(F)(F)F)cc1C(=O)N[C@@H]1CCCc2cc(-c3ccnc(C(F)(F)F)c3)[nH]c21 [Compound I-475b],> 1000
7,Cn1nc(C(F)(F)F)cc1C(=O)N[C@@H]1CCCCn2nc(-c3cc(C(F)(F)F)ncc3F)cc21 [Compound I-476b],250 to 500
8,Cn1nc(C(F)(F)F)nc1C(=O)N[C@@H]1CCn2nc(-c3ccnc(C(C)(F)F)c3)cc21 [Compound I-480b],500 to 1000
9,Cn1nc(C(F)(F)F)nc1C(=O)N[C@@H]1CCn2nc(-c3cc(C(F)(F)F)ncc3Cl)cc21 [Compound I-481b],250 to 500
10,Cc1cnc(C(F)(F)F)cc1-c1cc2n(n1)CC[C@H]2NC(=O)c1nc(C(F)(F)F)nn1C [Compound I-482b],500 to 1000
11,COc1cc(C(=O)N[C@@H]2CCn3nc(-c4cc(C(F)(F)F)ncc4F)cc32)ccn1 [Compound I-485b],< 250
12,Cc1cc(C#N)cc(C(=O)N[C@@H]2CCn3nc(-c4cc(C(F)(F)F)ncc4F)cc32)c1 [Compound I-486b],250 to 500
13,"O=C(N[C@H]1CCn2nc(-c3ccnc(C(F)(F)F)c3)cc21)C12CC(F)(C1)C2 [Compound I-489a, (S)-3-Fluoro-N-(2-(2-(trifluoromethyl)pyridin-4-yl)-5,6-dihydro-4H-pyrrolo[1,2-b]pyrazol-4-yl)bicyclo[1.1.1]pentane-1-carboxamide]",< 250
14,"O=C(N[C@H]1CCn2nc(-c3ccnc(C(F)(F)F)c3)cc21)C12CC(Cl)(C1)C2 [Compound I-490a, (S)-3-Chloro-N-(2-(2-(trifluoromethyl)pyridin-4-yl)-5,6-dihydro-4H-pyrrolo[1,2-b]pyrazol-4-yl)bicyclo[1.1.1]pentane-1-carboxamide]",< 250

# Results, then the compound that gave them:
row,IC50 [nM],SMILES
1,< 250,O=C(N[C@H]1CCc2nn(-c3ccnc(C4CC4)c3)cc21)c1cc(F)cc(F)c1 [Compound I-462a]
2,< 250,Cn1nc(C(F)(F)F)cc1C(=O)NC1CCCn2nc(-c3ccnc(C(F)(F)F)c3)cc2C1 (centres unmarked) [Compound I-465]
3,< 250,Cn1nc(C(F)(F)F)cc1C(=O)NC1CCn2nc(-c3ccnc(C(F)(F)F)c3)cc2C1 (centres unmarked) [Compound I-468]
4,< 250,Cn1nc(C(F)(F)F)cc1C(=O)NC1Cc2cc(-c3ccnc(C(F)(F)F)c3)nn2C1 (centres unmarked) [Compound I-469]
5,< 250,N#Cc1cc(F)cc(C(=O)N[C@@H]2CCCCn3nc(-c4ccnc(C5CC5)c4)cc32)c1 [Compound I-470b]
6,< 250,N#Cc1cccc(C(=O)NC2CCCCC3OC(c4ccnc(C(F)(F)F)c4)=NC23)c1 (centres unmarked) [Compound I-477]
7,< 250,O=C(NC1CCc2cnc(-c3ccnc(C(F)(F)F)c3)cc21)c1cc(F)cc(F)c1 (centres unmarked) [Compound I-478]
8,< 250,"Cn1nc(C(F)(F)F)nc1C(=O)N[C@H]1CCn2nc(-c3cc(C4CC4)ncc3F)cc21 [Compound I-483a, (S)—N-(2-(2-Cyclopropyl-5-fluoropyridin-4-yl)-5,6-dihydro-4H-pyrrolo[1,2-b]pyrazol-4-yl)-1-methyl-3-(trifluoromethyl)-1H-1,2,4-triazole-5-carboxamide]"
9,< 250,"O=C(N[C@H]1CCn2nc(-c3ccnc(C(F)(F)F)c3)cc21)c1cn(C(F)(F)F)nc1C(F)F [Compound I-484a, (S)-3-(Difluoromethyl)-1-(trifluoromethyl)-N-(2-(2-(trifluoromethyl)pyridin-4-yl)-5,6-dihydro-4H-pyrrolo[1,2-b]pyrazol-4-yl)-1H-pyrazole-4-carboxamide]"
